In patent US6630488B1, “Quinolizinones as integrin inhibitors” (Biochem Pharma, Inc., priority 1998, dated 2003):
Structures can show the parent of a compound that is named as a salt.

Tests used:
placental αvβ3 = target: T1, placental αvβ3 (Homo sapiens, UniProt P05106+P06756); assay: Fibrinogen binding to immobilized αvβ3; details: biotinylated-fibrinogen 10 nM, immobilized placental αvβ3; read-out: IC50 values for the fibrinogen binding assay αvβ3
T1 construct: purified active GP IIb-IIIa (Calbiochem) or olacental αvβ3 at 0.5 μg/ml; from tissue; host or cells: placenta
T1 sequence (P06756 31-889 limits assumed): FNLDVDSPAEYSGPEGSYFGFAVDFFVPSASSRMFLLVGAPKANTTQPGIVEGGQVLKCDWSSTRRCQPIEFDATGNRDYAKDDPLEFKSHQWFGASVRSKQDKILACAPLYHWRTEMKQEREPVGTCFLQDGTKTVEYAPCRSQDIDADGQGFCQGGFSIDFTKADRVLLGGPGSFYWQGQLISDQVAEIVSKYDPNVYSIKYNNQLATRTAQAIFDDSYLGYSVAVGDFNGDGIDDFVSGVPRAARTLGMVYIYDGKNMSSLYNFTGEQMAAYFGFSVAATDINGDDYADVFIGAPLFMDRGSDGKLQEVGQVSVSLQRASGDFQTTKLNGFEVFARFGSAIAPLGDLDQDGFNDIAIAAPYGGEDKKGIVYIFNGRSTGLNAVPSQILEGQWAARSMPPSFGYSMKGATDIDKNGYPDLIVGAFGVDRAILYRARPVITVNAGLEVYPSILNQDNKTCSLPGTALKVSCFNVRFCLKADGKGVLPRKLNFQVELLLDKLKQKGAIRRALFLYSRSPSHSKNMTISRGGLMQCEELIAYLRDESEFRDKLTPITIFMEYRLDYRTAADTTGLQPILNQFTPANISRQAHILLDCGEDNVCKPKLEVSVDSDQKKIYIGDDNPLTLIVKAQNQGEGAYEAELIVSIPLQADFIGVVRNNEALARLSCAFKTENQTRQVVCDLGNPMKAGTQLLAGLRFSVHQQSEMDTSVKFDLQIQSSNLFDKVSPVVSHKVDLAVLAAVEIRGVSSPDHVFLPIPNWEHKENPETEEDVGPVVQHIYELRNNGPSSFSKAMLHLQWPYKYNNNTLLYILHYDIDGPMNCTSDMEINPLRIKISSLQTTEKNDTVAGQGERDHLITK
T1 sequence (P06756 891-1048 partner limits assumed): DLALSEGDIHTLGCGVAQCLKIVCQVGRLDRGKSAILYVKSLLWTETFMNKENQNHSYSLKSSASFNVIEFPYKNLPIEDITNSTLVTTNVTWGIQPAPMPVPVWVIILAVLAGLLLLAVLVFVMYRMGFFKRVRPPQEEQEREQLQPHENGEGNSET
T1 sequence (P05106 27-788): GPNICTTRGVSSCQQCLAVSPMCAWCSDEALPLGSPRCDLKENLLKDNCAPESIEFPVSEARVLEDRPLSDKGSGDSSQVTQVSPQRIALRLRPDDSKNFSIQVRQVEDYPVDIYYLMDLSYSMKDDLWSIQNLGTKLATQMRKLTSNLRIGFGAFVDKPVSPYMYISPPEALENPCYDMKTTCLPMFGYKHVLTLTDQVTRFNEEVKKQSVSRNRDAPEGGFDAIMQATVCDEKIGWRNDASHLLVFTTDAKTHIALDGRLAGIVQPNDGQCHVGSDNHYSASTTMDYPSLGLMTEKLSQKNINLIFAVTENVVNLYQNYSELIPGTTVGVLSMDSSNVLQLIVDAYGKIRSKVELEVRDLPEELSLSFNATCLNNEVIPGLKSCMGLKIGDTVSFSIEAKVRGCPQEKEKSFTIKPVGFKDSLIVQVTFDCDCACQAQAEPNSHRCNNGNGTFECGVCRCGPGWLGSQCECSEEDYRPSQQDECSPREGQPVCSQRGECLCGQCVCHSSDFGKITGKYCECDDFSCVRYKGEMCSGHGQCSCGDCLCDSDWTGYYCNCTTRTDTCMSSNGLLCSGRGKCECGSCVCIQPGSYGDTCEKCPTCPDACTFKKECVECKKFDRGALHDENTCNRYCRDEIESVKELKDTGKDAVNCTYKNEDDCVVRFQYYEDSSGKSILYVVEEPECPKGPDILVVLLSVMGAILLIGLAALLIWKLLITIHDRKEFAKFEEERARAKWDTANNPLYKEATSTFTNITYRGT
Procedure: (§1) Nonbound fibrinogen was removed by five washes with binding buffer. Avidin conjugated to alkaline phosphatase (Sigma), diluted in binding buffer, was added and incubated for two hours at 37° C. The plates were washed five times with binding buffer, and after addition of the substrate PNPP (Pierce), the enzyme activity was measured by the absorbance at 405 nm.

GP IIb-IIIa (αIIbβ3) = target: T2, GP IIb-IIIa (αIIbβ3) (Homo sapiens, UniProt P05106+P08514); assay: Fibrinogen binding to immobilized GP IIb-IIIa (αIIbβ3); details: biotinylated-fibrinogen 10 nM, immobilized GP IIb-IIIa; read-out: IC50 values for the fibrinogen binding assay αIIbβ3
T2 construct: purchased Calbiochem
T2 sequence (P08514 32-887 limits assumed): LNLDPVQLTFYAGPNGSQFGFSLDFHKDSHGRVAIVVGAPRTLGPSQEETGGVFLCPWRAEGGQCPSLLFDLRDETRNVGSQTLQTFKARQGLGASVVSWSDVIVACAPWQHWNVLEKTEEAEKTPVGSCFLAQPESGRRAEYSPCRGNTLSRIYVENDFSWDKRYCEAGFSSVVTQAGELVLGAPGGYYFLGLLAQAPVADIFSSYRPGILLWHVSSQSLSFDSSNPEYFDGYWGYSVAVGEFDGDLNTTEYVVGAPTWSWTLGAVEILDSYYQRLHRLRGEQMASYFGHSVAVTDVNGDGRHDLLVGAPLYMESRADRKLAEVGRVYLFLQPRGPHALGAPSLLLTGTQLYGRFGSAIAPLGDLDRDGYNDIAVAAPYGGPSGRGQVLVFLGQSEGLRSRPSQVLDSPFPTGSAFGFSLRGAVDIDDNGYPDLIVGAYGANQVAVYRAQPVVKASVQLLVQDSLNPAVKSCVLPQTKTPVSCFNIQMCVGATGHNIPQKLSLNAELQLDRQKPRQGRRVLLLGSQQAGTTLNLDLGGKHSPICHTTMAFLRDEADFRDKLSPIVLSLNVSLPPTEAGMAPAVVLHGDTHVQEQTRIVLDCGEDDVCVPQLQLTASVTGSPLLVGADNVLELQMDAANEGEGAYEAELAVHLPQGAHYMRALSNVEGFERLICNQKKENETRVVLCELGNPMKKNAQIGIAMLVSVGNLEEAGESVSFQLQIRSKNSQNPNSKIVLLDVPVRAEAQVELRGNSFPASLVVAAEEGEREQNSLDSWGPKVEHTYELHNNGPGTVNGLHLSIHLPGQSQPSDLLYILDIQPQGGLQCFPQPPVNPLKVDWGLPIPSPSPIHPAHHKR
T2 sequence (P08514 891-1039 partner limits assumed): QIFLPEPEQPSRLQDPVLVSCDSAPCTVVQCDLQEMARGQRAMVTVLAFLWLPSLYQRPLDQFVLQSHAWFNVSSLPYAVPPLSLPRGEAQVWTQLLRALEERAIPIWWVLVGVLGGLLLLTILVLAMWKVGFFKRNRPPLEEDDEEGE
T2 sequence (P05106 27-788): as the sequence (P05106 27-788) above
Procedure: as §1

Q: Which results are given for `N=C(N)NCCCOc1ccc2ccc(NC(=O)NC(CC(=O)O)c3cccnc3)c(=O)n2c1` (racemic) [Compound VIII, (+/−)-3-{3-[7-(3-Guanidino-propoxy)-4-oxo-4H-quinolizin-3-yl]-ureido}-3-pyridin-3-yl-propionic Acid]?
A: IC50 (placental αvβ3): 1.2 µM; IC50 (GP IIb-IIIa (αIIbβ3)): 3.5 µM

Q: `O=C(O)CC(NC(=O)c1ccc2ccc(OCCCNC(=O)OCc3ccccc3)cn2c1=O)c1ccccc1` (racemic) [Compound XI, (+/−)-3-{[7-(3-Benzyloxycarbonylamino-propoxy)-4-oxo-4H-quinolizine-3-carbonyl]-amino}-3-phenyl-propionic Acid] was tested. Which IC50 (placental αvβ3) did it give?
A: The IC50 was 20 µM.

Q: And the IC50 (GP IIb-IIIa (αIIbβ3))?
A: Its IC50 is 20 µM.

Q: `N=C(N)NC1CCC(Nc2ccn3c(=O)c(C(=O)NC(CC(=O)O)c4ccccc4)ccc3c2)CC1` (racemic) [Compound XLI, (+/−)-3-{[8-(4-Guanidino-cyclohexylamino)-4-oxo-4H-quinolizine-3-carbonyl]-amino}-3-phenyl-propionic Acid Trifluoroacetic Acid Salt] was tested. Which IC50 (placental αvβ3) did it give?
A: The IC50 was 17 µM.

Q: What about the IC50 (GP IIb-IIIa (αIIbβ3)) of the same molecule?
A: Its IC50 is 0.23 µM.

Q: What does the source list for `N=C(N)NCc1ccc2cc(C(=O)NC(CC(=O)O)c3cc(Cl)cc(Cl)c3)cc(=O)n2c1` (racemic) [Compound XLII, (+/−)-3-(3,5-Dichlorophenyl)-3-((7-guanidinomethyl-4-oxo-4H-quinolizine-2-carbonyl)-amino]-propionic acid trifluoroacetic acid salt]?
A: IC50 (placental αvβ3): 4 µM; IC50 (GP IIb-IIIa (αIIbβ3)): 23 µM

Q: What does the source list for `N=C(N)NCc1ccc2cc(C(=O)NC(CC(=O)O)c3cccnc3)cc(=O)n2c1` (racemic) [Compound XLIII, (+/−)-3-[(7-guanidinomethyl-4-oxo-4H-quinolizine-2-carbonyl]-amino)-3-pyridin-3-yl-propionic acid bis-trifluoroacetic acid salt]?
A: IC50 (placental αvβ3): 0.72 µM; IC50 (GP IIb-IIIa (αIIbβ3)): 14.8 µM

Q: With `N=C(N)NCc1ccc2cc(C(=O)NCC(Nc3ncccn3)C(=O)O)cc(=O)n2c1` (racemic) [Compound XLIV, (+/−)-3-[(7-guanidinomethyl-4-oxo-4H-quinolizine-2-carbonyl)-amino]-2-(pyrimidin-2-ylamino)-propionic acid bis-trifluoroacetic acid salt] as the molecule, how does the IC50 (placental αvβ3) read?
A: The IC50 was 0.03 µM.

Q: What about the IC50 (GP IIb-IIIa (αIIbβ3)) of the same molecule?
A: The IC50 was 6 µM.

Q: Which IC50 (placental αvβ3) does the source give for `CN(CCN(C)c1ccn2c(=O)c(C(=O)NC(CC(=O)O)c3ccccc3)ccc2c1)C(=N)N` (racemic) [Compound XXXIX, (+/−)-3-[(8-{Methyl-[2-(N-methyl-guanidino)-ethyl]-amino}-4-oxo-4H-quinolizine-3-carbonyl)-amino]-3-phenyl-propionic Acid Trifluoroacetic Acid Salt] here?
A: Its IC50 is 21 µM.

Q: And the IC50 (GP IIb-IIIa (αIIbβ3))?
A: The IC50 was 0.063 µM.

Q: With `NCCNc1ccn2c(=O)c(C(=O)NC(CC(=O)O)c3ccccc3)ccc2c1` (racemic) [Compound XXXVI, (+/−)-3-{[8-(2-Amino-ethylamino)-4-oxo-4H-quinolizine-3-carbonyl]-amino}-3-phenyl-propionic Acid] as the molecule, how does the IC50 (placental αvβ3) read?
A: The IC50 was 19 µM.

Q: And the IC50 (GP IIb-IIIa (αIIbβ3))?
A: The IC50 was 10 µM.

Q: `N=C(N)SCCNc1ccn2c(=O)c(C(=O)NC(CC(=O)O)c3ccccc3)ccc2c1` (racemic) [Compound XXXVII, (+/−)-3-{[8-(2-Carbamimidoylsulfanyl-ethylamino)-4-oxo-4H-quinolizine-3-carbonyl]-amino}-3-phenyl-propionic Acid Trifluoroacetic Acid Salt] was tested. Which IC50 (placental αvβ3) did it give?
A: Its IC50 is 8.2 µM.

Q: And the IC50 (GP IIb-IIIa (αIIbβ3))?
A: The IC50 was 0.17 µM.

Q: Which results are given for `O=C(O)CC(NC(=O)c1ccc2cc(NCCSC(=S)Nc3cccnc3)ccn2c1=O)c1ccccc1` (racemic) [Compound XXXVIII, (+/−)-3-({4-Oxo-8-[2-(pyridin-3-ylthiocarbamoylsulfanyl)-ethylamino]4H-quinolizine-3-carbonyl}-amino)-3-phenyl-propionic acid trifluoroacetic acid salt]?
A: IC50 (placental αvβ3): 13 µM; IC50 (GP IIb-IIIa (αIIbβ3)): 0.045 µM

Q: Which IC50 (placental αvβ3) does the source give for `O=C(O)CC(NC(=O)c1ccc2ccc(OCCCNC(=O)NCc3ccccc3)cn2c1=O)c1ccccc1` (racemic) [Compound X] here?
A: Its IC50 is 67 µM.

Q: What about the IC50 (GP IIb-IIIa (αIIbβ3)) of the same molecule?
A: The IC50 was 29 µM.

Q: `NCCCOc1ccc2cc(C(=O)NC[C@H](Nc3ncccn3)C(=O)O)cc(=O)n2c1` (stereo in doubt) [Compound XXI, 3-{[7-(3-Amino-propoxy)-4-oxo-4H-quinolizine-2 carbonyl]-amino}-2-(pyrimidin-2-ylamino)-propionic Acid Hydrochloride] was tested. Which IC50 (placental αvβ3) did it give?
A: Its IC50 is 14 µM.

Q: What about the IC50 (GP IIb-IIIa (αIIbβ3)) of the same molecule?
A: The IC50 was 0.074 µM.

Q: For `NCc1ccc2cc(C(=O)NC[C@H](NS(=O)(=O)c3ccccc3)C(=O)O)cc(=O)n2c1` (stereo in doubt) [Compound XXVI, 3-[(7-Aminomethyl-4-oxo-4H-quinolizine-2-carbonyl)-amino]-2-benzenesulfonylamino-propionic Acid Trifluoroacetic Acid Salt], which IC50 (placental αvβ3) is on record?
A: The IC50 was 0.019 µM.

Q: What about the IC50 (GP IIb-IIIa (αIIbβ3)) of the same molecule?
A: The IC50 was 0.44 µM.

Q: What does the source list for `NCCCCCOc1ccc2ccc(C(=O)NC[C@H](NS(=O)(=O)c3ccccc3)C(=O)O)c(=O)n2c1` [Compound I, (S)-2-Benzenesulfonylamino-3-{[7-(5-aminopentyloxy)-4-oxo-4H-quinolizine-3-carbonyl]-amino}-propionic Acid TFA Salt]?
A: IC50 (placental αvβ3): 44 µM; IC50 (GP IIb-IIIa (αIIbβ3)): 0.058 µM

Q: For `N=C(N)NCCCCCOc1ccc2ccc(C(=O)NC[C@H](NS(=O)(=O)c3ccccc3)C(=O)O)c(=O)n2c1` [Compound II, (S)-2-Benzenesulfonylamino-3-{[7-(5-guanidino-pentyloxy)-4-oxo-4H-quinolizine-3-carbonyl]-amino}-propionic Acid Hydrochloride], which IC50 (placental αvβ3) is on record?
A: Its IC50 is 24 µM.

Q: And the IC50 (GP IIb-IIIa (αIIbβ3))?
A: Its IC50 is 3.9 µM.

Q: Which IC50 (placental αvβ3) does the source give for `NCCCOc1ccc2ccc(C(=O)NC[C@H](NS(=O)(=O)c3ccccc3)C(=O)O)c(=O)n2c1` [Compound III, (S)-3-{[7-(3-Amino-propoxy)-4-oxo-4H-quinolizine-3-carbonyl]-amino}-2-benzenesulfonylamino-propionic Acid Trifluoroacetic Acid Salt] here?
A: The IC50 was 96 µM.

Q: And the IC50 (GP IIb-IIIa (αIIbβ3))?
A: The IC50 was 0.52 µM.

Q: How did the IC50 (placental αvβ3) turn out when `N=C(N)NCCCOc1ccc2ccc(C(=O)NC[C@H](NS(=O)(=O)c3ccccc3)C(=O)O)c(=O)n2c1` [Compound IV, (S)-2-Benzenesulfonylamino-3-{[7-(3-guanidino-propoxy)-4-oxo-4H-quinolizine-3-carbonyl]-amino}-propionic Acid Hydrochloride] was run?
A: Its IC50 is 8.7 µM.

Q: What about the IC50 (GP IIb-IIIa (αIIbβ3)) of the same molecule?
A: The IC50 was 0.033 µM.

Q: With `N=C(N)NCCCOc1ccc2ccc(NC(=O)NC[C@H](NS(=O)(=O)c3ccccc3)C(=O)O)c(=O)n2c1` [Compound IX, (S)-2-Benzenesulfonylamino-3-{3-[7-(3-guanidino-propoxy)-4-oxo-4H-quinolizin-3-yl]-ureido}-propionic Acid Trifluoroacetate Salt] as the molecule, how does the IC50 (placental αvβ3) read?
A: The IC50 was 1.3 µM.

Q: What about the IC50 (GP IIb-IIIa (αIIbβ3)) of the same molecule?
A: Its IC50 is 0.0096 µM.

Q: Which results are given for `O=C(NC[C@H](NS(=O)(=O)c1ccccc1)C(=O)O)Nc1ccc2ccc(OCCCNC(=O)OCc3ccccc3)cn2c1=O` [Compound VI, (S)-2-Benzenesulfonylamino-3-{3-[7-(3-benzyloxycarbonylamino-propoxy)-4-oxo-4H-quinolizine-3-yl]-ureido}-propionic Acid]?
A: IC50 (placental αvβ3): > 100 µM; IC50 (GP IIb-IIIa (αIIbβ3)): 1.8 µM

Q: What does the source list for `NCCCOc1ccc2ccc(NC(=O)NC[C@H](NS(=O)(=O)c3ccccc3)C(=O)O)c(=O)n2c1` [Compound VII, (S)-3-{3-[7-(3-Amino-propoxy)-4-oxo-4H-quinolizin-3-yl]-ureido}-2-Benzenesulfonylamino-propionic Acid]?
A: IC50 (placental αvβ3): 92 µM; IC50 (GP IIb-IIIa (αIIbβ3)): 0.0018 µM

Q: What does the source list for `CNC(=O)NCCCOc1ccc2cc(C(=O)NC[C@H](NS(=O)(=O)c3ccccc3)C(=O)O)cc(=O)n2c1` [Compound XII, (S)-2-Benzenesulfonylamino-3-({7-[3-(3-methyl-ureido)-propoxy]-4-oxo-4H-quinolizine-2-carbonyl}-amino)-propionic Acid]?
A: IC50 (placental αvβ3): 1.1 µM; IC50 (GP IIb-IIIa (αIIbβ3)): 0.79 µM

Q: Which results are given for `NCCCOc1ccc2cc(C(=O)O)cc(=O)n2c1` [Compound XIII, 7-(3-Amino-propoxy)-4-oxo-4H-quinolizine-2-carboxylic Acid Trifluoroacetic Acid Salt]?
A: IC50 (placental αvβ3): > 100 µM; IC50 (GP IIb-IIIa (αIIbβ3)): 5.3 µM

Q: `NCCCOc1ccc2cc(C(=O)NC[C@H](NS(=O)(=O)c3ccccc3)C(=O)O)cc(=O)n2c1` [Compound XIV, (S)-3-{[7-(3-Amino-propoxy)-4-oxo-4H-quinolizine-2-carbonyl]-amino}-2-benzenesulfonylamino-propionic Acid Trifluoroacetic Acid Salt] was tested. Which IC50 (placental αvβ3) did it give?
A: Its IC50 is 17 µM.

Q: What about the IC50 (GP IIb-IIIa (αIIbβ3)) of the same molecule?
A: The IC50 was 0.00038 µM.

Q: Which IC50 (placental αvβ3) does the source give for `NCCOc1ccc2cc(C(=O)NC[C@H](NS(=O)(=O)c3ccccc3)C(=O)O)cc(=O)n2c1` [Compound XIX, (S)-3-{[7-(2-Amino-ethoxy)-4-oxo-4H-quinolizine-2-carbonyl]-amino}-2-benzenesulfonylamino-propionic Acid Trifluoroacetic Acid Salt] here?
A: The IC50 was 2 µM.

Q: And the IC50 (GP IIb-IIIa (αIIbβ3))?
A: Its IC50 is 0.029 µM.

Q: With `O=C(NCc1ccc2cc(C(=O)NC[C@H](NS(=O)(=O)c3ccccc3)C(=O)O)cc(=O)n2c1)OCc1ccccc1` [Compound XLV, (S)-2-Benzenesulfonylamino-3-([(7-benzyloxycarbonylamino-methyl)-4-oxo-4H-quinolizine-2-carbonyl]-amino)-propionic acid] as the molecule, how does the IC50 (placental αvβ3) read?
A: Its IC50 is 0.91 µM.

Q: What about the IC50 (GP IIb-IIIa (αIIbβ3)) of the same molecule?
A: Its IC50 is 0.85 µM.

Q: How did the IC50 (placental αvβ3) turn out when `O=C(NC[C@H](NS(=O)(=O)c1ccccc1)C(=O)O)c1cc(=O)n2cc(CNc3ncccn3)ccc2c1` [Compound XLVI, (S)-2-Benzenesulfonylamino-3-([4-oxo-7-(pyrimidin-2-ylaminomethyl)-4H-quinolizine-2-carbonyl]-amino)-propionic acid trifluoroacetic acid salt] was run?
A: Its IC50 is 0.29 µM.

Q: And the IC50 (GP IIb-IIIa (αIIbβ3))?
A: Its IC50 is 3.5 µM.

Q: Which results are given for `O=C(NCc1ccccc1)NCc1ccc2cc(C(=O)NC[C@H](NS(=O)(=O)c3ccccc3)C(=O)O)cc(=O)n2c1` [Compound XLVII, (S)-2-Benzenesulfonylamino-3-{[7-(3-benzyl-ureidomethyl)-4-oxo-4H-quinolizine-2-carbonyl]-amino}-propionic acid]?
A: IC50 (placental αvβ3): 0.006 µM; IC50 (GP IIb-IIIa (αIIbβ3)): 4.85 µM
